This note sets out measurements from patent publication US8710021B2, “Inhibition of HRP-3 using modified oligonucleotides” (Bionucleon S.r.l., priority 2008, dated 2014).

In data set [1] the target is T1, HRP-3 (Homo sapiens, UniProt Q9Y3E1).
T1 construct: The HRP-3 coding region was cloned into the pET30 vector using EcoRI and NdeI as restriction sites; made in house; host or cells: E. coli BL21
The data set can be described thus: 3T3 migration in vitro assay: prevention of HRP-3 function by DNA duplexes. It is filed as cell-based, mouse. The method, then: All the four DNA duplexes were tested in our 3T3 migration in vitro assay to see if they were able to prevent HRP-3 function by binding its PWWP domain (FIG. 13). […] The third column on the left is the negative control.

Data set [2] concerns the target T1, HRP-3. The data set can be described thus: HUVEC migration assay with Duplex 1 and HRP-3. The format is cell-based. The note with it: 50 nM; data not shown.

T1 sequence (Q9Y3E1 whole entry): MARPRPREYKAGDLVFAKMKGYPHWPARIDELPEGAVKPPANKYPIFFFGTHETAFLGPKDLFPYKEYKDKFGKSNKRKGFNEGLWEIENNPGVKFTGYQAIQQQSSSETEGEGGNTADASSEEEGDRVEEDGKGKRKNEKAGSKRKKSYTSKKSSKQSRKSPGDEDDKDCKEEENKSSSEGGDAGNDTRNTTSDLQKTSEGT

As to “Duplex 1: short (15 bp) duplex DNA, the duplex of Lukasik et al., designed to target HRP3 (FIG. 12) (chain 1 TACAACACCCACAAA; chain 2 TTTGTGGGTGTTGTA; chain 1: DNA, backbone and methylation of C not given here; chain 2: DNA, backbone not given here) [reference compound]”, the “activity in abolishing the anti-migratory effect of HRP-3 on 3T3 cells” value in data set [1] is listed as “able to abolish the protein effect of HRP-3”. Also, in data set [1] (250 nM duplex with HRP-3), the “migration of 3T3 cells in presence of HRP-3 and duplex” value is “comparable with the control with FBS”. Also, the “influence of the duplex alone on 3T3 migration compared to control with FBS” value in data set [1] (1000 nM, without HRP-3) was “does not have any influence on the migration”. In addition, in data set [2], the “reversal of anti-migratory activity of HRP-3 on HUVEC” value is “restore totally”.
